Holding throughout (assay type): in vivo
For test [1], the system named is Euschistus heros (Neotropical Brown Stink Bug). The experiment in a line: Example B3: Euschistus heros, soybean leaves, N2 nymphs. To be noted: 120 h, application rate of 200 ppm, 5 days after infestation, read-out: effect in at least one of the two categories (mortality or growth inhibition). Here is the method:
Soybean leaves on agar in 24-well microtiter plates were sprayed with aqueous test solutions prepared from 10'000 ppm DMSO stock solutions. After drying the leaves were infested with N2 nymphs. The samples were assessed for mortality and growth inhibition in comparison to untreated samples 5 days after infestation. The following compounds gave an effect of at least 80% in at least one of the two categories (mortality or growth inhibition) at an application rate of 200 ppm: • P1, P3, P8, P9, P10, P13, P14, and P15

Test [2] relates to Spodoptera littoralis (Egyptian Cotton Leaf Worm). Briefly: Example B13: Breakpoint (BP80) against Spodoptera littoralis. The settings on record: lowest concentration which gives 80% larval mortality; larval feeding/contact. Here is the method:
(§1) Cotton leaf discs were placed onto agar in 24-well microtiter plates and sprayed with aqueous test solutions prepared from 10'000 ppm DMSO stock solutions. After drying the leaf discs were infested with five L1 larvae. The samples were assessed for mortality, anti-feeding effect, and growth inhibition in comparison to untreated samples 3 days after infestation. Control of Spodoptera littoralis by a test sample is given when at least one of the categories mortality, anti-feedant effect, and growth inhibition is higher than the untreated sample.
(§2) Insecticidal action against Diabrotica balteata (Corn root worm), Plutella xylostella (Diamond black moth), and Spodoptera littoralis (Egyptian cotton leaf worm). The tests were carried out as described in biological examples B2, B6 and B7, respectively, with the larval feeding/contact activity being reported as Breakpoint (BP80) values in parts per million (i.e. the lowest concentration which gives 80% larval mortality).

Test [3] has as its system Plutella xylostella (Diamond black moth). Briefly: Example B13: Breakpoint (BP80) against Plutella xylostella. To be noted: lowest concentration which gives 80% larval mortality; larval feeding/contact. The protocol: (§3) 24-well microtiter plates with artificial diet were treated with aqueous test solutions prepared from 10'000 ppm DMSO stock solutions by pipetting. After drying, the plates were infested with L2 larvae (10 to 15 per well). The samples were assessed for mortality and growth inhibition in comparison to untreated samples 5 days after infestation. The following compounds gave an effect of at least 80% in at least one of the two categories (mortality or growth inhibition) at an application rate of 200 ppm: P1, P2, P3, P4, P6, P8, P9, P10, P11, P12, P13, P14 and P15.
as §2

The subject of test [4] is Diabrotica balteata (Corn Root Worm). Briefly: Example B13: Breakpoint (BP80) against Diabrotica balteata. The settings on record: lowest concentration which gives 80% larval mortality; larval feeding/contact. The protocol:
(§4) Maize sprouts placed onto an agar layer in 24-well microtiter plates were treated with aqueous test solutions prepared from 10'000 ppm DMSO stock solutions by spraying. After drying, the plates were infested with L2 larvae (6 to 10 per well). The samples were assessed for mortality and growth inhibition in comparison to untreated samples 4 days after infestation. The following compounds gave an effect of at least 80% in at least one of the two categories (mortality or growth inhibition) at an application rate of 200 ppm: P1, P2, P3, P4, P5, P6, P7, P8, P9, P10, P11, P12, P13, P14, and P15.
as §2

For test [5], the system named is Thrips tabaci (Onion Thrips). The experiment in a line: Example B10: Thrips tabaci feeding/contact activity. The settings on record: 144 h, application rate of 200 ppm, 6 days after infestation. The protocol:
Sunflower leaf discs were placed on agar in 24-well microtiter plates and sprayed with aqueous test solutions prepared from 10'000 ppm DMSO stock solutions. After drying the leaf discs were infested with a thrips population of mixed ages. The samples were assessed for mortality 6 days after infestation.

Test [6] deals with Spodoptera littoralis (Egyptian Cotton Leaf Worm). The experiment in a line: Example B7: Spodoptera littoralis, cotton leaf discs, L1 larvae. To be noted: foliar, 72 h, application rate of 200 ppm, 3 days after infestation. The protocol: as §1
Test [7] concerns Plutella xylostella (Diamond Back Moth). The experiment in a line: Example B6: Plutella xylostella, artificial diet, L2 larvae. The settings on record: 120 h, application rate of 200 ppm, 5 days after infestation, read-out: effect in at least one of the two categories (mortality or growth inhibition). The protocol: as §3
Test [8] has as its system Diabrotica balteata (Corn Root Worm). Briefly: Example B2: Diabrotica balteata, maize sprouts, L2 larvae. To be noted: 96 h, application rate of 200 ppm, 4 days after infestation, read-out: effect in at least one of the two categories (mortality or growth inhibition). Here is the method:
as §4

For test [9], the system named is Myzus persicae (Green Peach Aphid). The experiment in a line: Example B4: Myzus persicae feeding/contact activity. To be noted: 144 h, application rate of 200 ppm, 6 days after infestation. Here is the method: Sunflower leaf discs were placed onto agar in a 24-well microtiter plate and sprayed with aqueous test solutions prepared from 10'000 ppm DMSO stock solutions. After drying, the leaf discs were infested with an aphid population of mixed ages. The samples were assessed for mortality 6 days after infestation.

Test [10] has as its system Spodoptera littoralis (Egyptian Cotton Leaf Worm). Briefly: Example B8: Spodoptera littoralis systemic activity. The settings on record: 144 h, test rate of 12.5 ppm, lettuce, 6 days after infestation, read-out: effect in at least one of the three categories (mortality, anti-feeding, or growth inhibition). The text has this:
Test compounds were applied by pipette from 10'000 ppm DMSO stock solutions into 24-well plates and mixed with agar. Lettuce seeds were placed onto the agar and the multi well plate was closed by another plate which contained also agar. After 7 days the compound was absorbed by the roots and the lettuce grew into the lid plate. The lettuce leaves were then cut off into the lid plate. Spodoptera eggs were pipetted through a plastic stencil onto a humid gel blotting paper and the lid plate was closed with it. The samples were assessed for mortality, anti-feedant effect and growth inhibition in comparison to untreated samples 6 days after infestation. The following compounds gave an effect of at least 80% in at least one of the three categories (mortality, anti-feeding, or growth inhibition) at a test rate of 12.5 ppm: • P10, P13, P14 and P15.

The test system of test [11] is Myzus persicae (Green Peach Aphid). The experiment in a line: Example B5: Myzus persicae systemic activity. The settings on record: 144 h, test rate of 24 ppm, pea seedling roots, 6 days. The protocol:
Roots of pea seedlings infested with an aphid population of mixed ages were placed directly into aqueous test solutions prepared from 10'000 DMSO stock solutions. The samples were assessed for mortality 6 days after placing seedlings into test solutions.

For test [12], the system named is Tetranychus urticae (Two-Spotted Spider Mite). The experiment in a line: Example B9: Tetranychus urticae feeding/contact activity. The settings on record: 192 h. Here is the method: Bean leaf discs on agar in 24-well microtiter plates were sprayed with aqueous test solutions prepared from 10'000 ppm DMSO stock solutions. After drying the leaf discs were infested with a mite population of mixed ages. The samples were assessed for mortality on mixed population (mobile stages) 8 days after infestation.

Test [13] concerns Bemisia tabaci (Cotton White Fly). Briefly: Example B1: Bemisia tabaci feeding/contact activity. To be noted: 144 h, application rate of 200 ppm, adult white flies, 6 days after incubation. Here is the method: Cotton leaf discs were placed on agar in 24-well microtiter plates and sprayed with aqueous test solutions prepared from 10'000 ppm DMSO stock solutions. After drying the leaf discs were infested with adult white flies. The samples were checked for mortality 6 days after incubation.

Where two headings read alike, the source gives them in different places. Where only a bound is given, the exact number is not on record here.

In general, mortality refers to the percentage killed.

As for `CCS(=O)(=O)c1ccc(-n2ccc(C(F)(F)F)n2)nc1-c1nc2cc(C(F)(F)F)ncc2n1C` [Compound P3, 2-[3-ethylsulfonyl-6-[3-(trifluoromethyl)pyrazol-1-yl]-2-pyridyl]-3-methyl-6-(trifluoromethyl)imidazo[4,5-c]pyridine], the percent effect (mortality or growth inhibition) at 200 ppm in test [1], in test [7] and in [8] was ≥ 80% each time. In addition, the “BP80 Values Spodoptera littoralis” value in [2] amounted to 0.8 ppm. The “BP80 Values Plutella xylostella” value in [3] turned out to be 12 ppm. Also, the “BP80 Values Diabrotica balteata” value in [4] is 0.8 ppm. In test [5], the mortality at 200 ppm is ≥ 80%. The percent control (mortality, anti-feedant effect or growth inhibition) at 200 ppm in test [6] is ≥ 80%.
Take `CCS(=O)(=O)c1ccc(-c2ncccn2)nc1-c1nc2cc(SC(F)(F)F)ncc2n1C` [Compound P10, 2-(3-ethylsulfonyl-6-pyrimidin-2-yl-2-pyridyl)-3-methyl-6-(trifluoromethylsulfanyl)imidazo[4,5-c]pyridine]: the mortality at 200 ppm in test [9], in [5] and in test [12] was ≥ 80% throughout. Besides, the percent effect (mortality or growth inhibition) at 200 ppm in test [1], in test [7] and in test [8] was ≥ 80% each time. Further, the percent effect (mortality, anti-feeding or growth inhibition) at 12.5 ppm in test [10] is ≥ 80%. In addition, the mortality at 24 ppm in test [11] is ≥ 80%. In addition, in [6], the percent control (mortality, anti-feedant effect or growth inhibition) at 200 ppm was ≥ 80%.
Consider `CCS(=O)(=O)c1ccc(C2CC2)nc1-c1nc2cc(SC(F)(F)F)ncc2n1C` [Compound P13, 2-(6-cyclopropyl-3-ethylsulfonyl-2-pyridyl)-3-methyl-6-(trifluoromethylsulfanyl)imidazo[4,5-c]pyridine], for which the mortality at 200 ppm was ≥ 80% in test [9]; ≥ 80% in test [13]; ≥ 80% in test [12] (application rate of 200 ppm, mixed population (mobile stages), 8 days after infestation, read-out: mortality). Besides, the percent effect (mortality or growth inhibition) at 200 ppm in [1], in [7] and in test [8] was ≥ 80% each time. Besides, the percent effect (mortality, anti-feeding or growth inhibition) at 12.5 ppm in test [10] was ≥ 80%. Besides, the percent control (mortality, anti-feedant effect or growth inhibition) at 200 ppm in test [6] is ≥ 80%.

Source of the values: patent US10138238B2, “Pesticidally active polycyclic derivatives with sulfur containing substituents” (Syngenta Participations AG, priority 2015, dated 2018).
